Measurements taken from US11059815B2, “Synthesis of small molecule histone deacetylase 6 degraders, compounds formed thereby, and pharmaceutical compositions containing them” (Wisconsin Alumni Research Foundation, priority 2018, dated 2021).
Entries after “also recorded” stand apart in the source; their conditions may differ. Values belong to the compound of their own block, whether it stands above or below them.

Target: T1, HDAC6 (Homo sapiens, UniProt Q9UBN7)
T1 construct: endogenous in cells; host or cells: MM1S (ATCC CRL-2974)
T1 sequence (Q9UBN7 1-1215): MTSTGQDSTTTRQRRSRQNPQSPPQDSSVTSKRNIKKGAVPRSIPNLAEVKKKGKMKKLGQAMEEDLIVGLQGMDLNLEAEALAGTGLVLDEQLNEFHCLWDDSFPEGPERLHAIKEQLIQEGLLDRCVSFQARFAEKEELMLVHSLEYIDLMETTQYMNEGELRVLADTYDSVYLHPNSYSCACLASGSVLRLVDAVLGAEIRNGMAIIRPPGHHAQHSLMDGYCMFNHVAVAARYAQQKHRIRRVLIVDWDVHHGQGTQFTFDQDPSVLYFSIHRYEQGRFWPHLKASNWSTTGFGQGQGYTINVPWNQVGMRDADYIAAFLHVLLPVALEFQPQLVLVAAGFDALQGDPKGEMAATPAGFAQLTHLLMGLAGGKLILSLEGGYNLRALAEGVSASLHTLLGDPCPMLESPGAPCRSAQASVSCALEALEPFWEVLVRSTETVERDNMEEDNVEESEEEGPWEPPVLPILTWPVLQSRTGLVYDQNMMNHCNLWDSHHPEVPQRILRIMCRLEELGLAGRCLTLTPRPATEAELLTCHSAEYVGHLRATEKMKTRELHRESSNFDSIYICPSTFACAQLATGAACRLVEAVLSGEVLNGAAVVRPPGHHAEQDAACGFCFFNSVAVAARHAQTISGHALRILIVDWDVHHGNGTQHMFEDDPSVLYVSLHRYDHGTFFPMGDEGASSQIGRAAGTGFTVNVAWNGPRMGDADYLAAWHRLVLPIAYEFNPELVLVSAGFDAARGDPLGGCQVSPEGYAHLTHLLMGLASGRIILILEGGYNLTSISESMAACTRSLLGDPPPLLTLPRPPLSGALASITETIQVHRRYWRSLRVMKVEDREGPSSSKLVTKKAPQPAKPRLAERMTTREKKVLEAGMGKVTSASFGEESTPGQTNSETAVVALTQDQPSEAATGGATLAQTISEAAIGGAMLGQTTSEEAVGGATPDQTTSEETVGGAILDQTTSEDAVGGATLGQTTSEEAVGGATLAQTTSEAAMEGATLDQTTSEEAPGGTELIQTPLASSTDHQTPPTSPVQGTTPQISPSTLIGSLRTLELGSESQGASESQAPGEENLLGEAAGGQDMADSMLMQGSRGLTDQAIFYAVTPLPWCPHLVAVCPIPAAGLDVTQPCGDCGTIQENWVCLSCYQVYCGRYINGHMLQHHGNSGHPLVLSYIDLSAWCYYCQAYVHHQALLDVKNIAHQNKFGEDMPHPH
Test: Western blot of HDAC6 in MM1S cells
Format: cell-based
Conditions: for HDAC6 degradation activity of negative controls by western blot: data not shown
Experimental: FIGS. 10A and 10B are western blot analysis of MM1S cells treated with selected candidates from C4-lined series (FIG. 10A) and C5-lined series (FIG. 10B) for 6 h.
FIGS. 12A, 12B, and 12C are a series of western blots showing that degrader 12d selectively promotes HDAC6 degradation in MM1S cells.
FIGS. 13A and 13B are western blot analysis of MM1S cells with pre-treatment of E3 ligase ligand pomalidomide, HDAC6 inhibitor Next-A or NAE inhibitor MLN 4924 (FIG. 13A) or pre-treatment of proteasome inhibitor MG132 or Bortezomib (FIG. 13B) or vehicle (DMSO) for 1 h and it is followed by the treatment of 100 nM 2d or vehicle (DMSO) for 6 h.
FIG. 16 is a western blot of selected candidate compounds having longer linkers. MM1S cells were treated with 100 nM degraders for 6 hours and analyzed by western blot.
See FIG. 10A and FIG. 10B to confirm the ELISA results. Class II HDAC4 was selected for comparison. For selected compounds from C4- or C5-linked series, all of them presented maximal effects at 100 nM and degraded significant amount of HDAC6 at 10 nM. […] The results from Western blot are consistent with the screening results by ELISA.
To evaluate the activity and selectivity of 12d, a full dose response experiment was performed with compound concentrations ranging from 0.3 nM to 10 μM in MM1S cells (FIG. 12A) for several HDACs, IKZFs, and Ac-tubulin. […] Degrader 12d reduced HDAC6 protein content at as low as 3 nM and achieved maximal effects around 30 nM. […] See Douglass et al. 2013, supra. The degradation of IKZFs started from 30 nM and was dose-dependent. It is interesting to see the more efficient degradation of HDAC6, which requires the formation of ternary complex, than that of IKZFs, which only requires the formation of binary complex. In addition to the distinct mechanism, the different turnover rates of HDAC6 and IKZFs may also contribute to the observed results. The acetylated tubulin level was also dose-dependent. At higher concentrations (3 μM and 10 μM), tubulin acetylation was not […] in response to recovered HDAC6 expression by “hook effect”. The elevated tubulin acetylation at higher concentrations was likely due to the combination of HDAC6 degradation and HDAC6 inhibition.
To probe the efficiency of 12d, MM1S was treated with 100 nM 12d and the change of HDAC6 protein level was monitored by time. The HDAC6 degradation started around 1 h and reached maximal degradation effect at 4 h. The degradation of IKZFs was only observed after 4 h. Meanwhile, HDAC1 was not affected and the acetylation of tubulin was accumulated by time. To study the re-synthesis rate of HDAC6 after degradation, “wash-out” experiments were performed (data not shown). Cells were treated with 100 nM 12d for 6 h and then washed with PBS to remove remaining degraders. HDAC6 expression was monitored for 48 h. […] Selected degraders were also tested in other cell lines and they are effective among all tested cancer cell lines.
To support the involvement of ubiquitination-proteasome system for the decrease of HDAC6 protein level, the degrader was co-treated with binding competitors or pathway blockers. […] Moreover, it also confirmed the role of the pomalidomide moiety in modulating IKZFs. […] Additionally, proteasome inhibitor MG132 and Bortezomib were used to block the down-stream proteasome degradation. […] Acetylated tubulin level was suppressed as well. This confirms that HDAC6 degradation is responsible for the acetylation of its substrates rather than inhibition by the “warhead” moiety. To exclude the possible transcriptional impact by degraders, qRT-PCR was used to examine the mRNA level of HDAC6 and related genes (data not shown). […] This is consistent with the hypothesis that the cellular knockdown of HDAC6 is due to direct protein degradation, not by transcriptional downregulation. […]

[1] = 1 h pre-treatment, then 100 nM degrader 6 h, MM1S
[2] = 12d dose response 0.3 nM to 10 μM, MM1S

Compound: CCCCN(Cc1ccc(C(=O)OC)cc1)C(=O)Nc1ccc(OCCCCCn2cc(CNc3cccc4c3C(=O)N(C3CCC(=O)NC3=O)C4=O)nn2)cc1 (centres unmarked) [Compound 13, Methyl 4-((1-butyl-3-(4-((5-(4-(((2-(2,6-dioxopiperidin-3-yl)-1,3-dioxoisoindolin-4-yl)amino)methyl)-1H-1,2,3-triazol-1-yl)pentyl)oxy)phenyl)ureido)methyl)benzoate]
HDAC6 degradation activity of negative controls by western blot (MM1S): inactive; also recorded: limited HDAC6 degradation

HDAC6 degradation by western blot (10 nM, 6 h, MM1S): degraded much less HDAC6
Compound: O=C(CCCCCCC(=O)N/N=C/c1ccc(OCCOCCOCCn2cc(CNc3cccc4c3C(=O)N(C3CCC(=O)NC3=O)C4=O)nn2)cc1)NO (centres unmarked) [Compound 1]

time at which reduction of HDAC6 expression started (time-course, MM1S): 30 min
time of maximal HDAC6 degradation (time-course, MM1S): around 4 h
Compound: CCCCN(Cc1ccc(C(=O)NO)cc1)C(=O)Nc1ccc(OCCCCCn2cc(CNc3cccc4c3C(=O)N(C3CCC(=O)NC3=O)C4=O)nn2)cc1 (centres unmarked) [Compound 2]

HDAC6 degradation activity of negative controls by western blot (MM1S): inactive
Compound: CCCCN(Cc1ccc(C(=O)NO)cc1)C(=O)Nc1ccc(OCCCCCn2cc(CNc3cccc4c3C(=O)N(C3CCC(=O)N(C)C3=O)C4=O)nn2)cc1 (centres unmarked) [Compound 15, 4-((1-butyl-3-(4-((5-(4-(((2-(1-methyl-2,6-dioxopiperidin-3-yl)-1,3-dioxoisoindolin-4-yl)amino)methyl)-1H-1,2,3-triazol-1-yl)pentyl)oxy)phenyl)ureido)methyl)-N-hydroxybenzamide]

HDAC6 recovery after wash-out (100 nM for 6 h, washed with PBS, monitored within 48 h): not fully recovered
time at which HDAC6 degradation started (100 nM, MM1S): around 1 h
time of maximal HDAC6 degradation effect (100 nM, MM1S): 4 h
HDAC6 level on co-treatment with pomalidomide or Next-A [1]: recovered HDAC6 level
degradation on co-treatment with proteasome inhibitor MG132 or Bortezomib [1]: no degradation of HDAC6
concentration at which hook effect was observed [2]: ≥ 3 µM
concentration of maximal effects on HDAC6 [2]: around 30 nM
lowest concentration reducing HDAC6 protein content [2]: 3 nM
Compound: CCCCN(Cc1ccc(C(=O)NO)cc1)C(=O)Nc1ccc(OCCCCCn2cc(CNc3cccc4c3C(=O)N(C3CCC(=O)NC3=O)C4=O)nn2)cc1 (centres unmarked) [Compound 12d, 4-((1-butyl-3-(4-((5-(4-(((2-(2,6-dioxopiperidin-3-yl)-1,3-dioxoisoindolin-4-yl)amino)methyl)-1H-1,2,3-triazol-1-yl)pentyl)oxy)phenyl)ureido)methyl)-N-hydroxybenzamide]
degradation on co-treatment with NAE inhibitor MLN4924 [1]: abolishing the degradation of both HDAC6 and IKZFs
